What was measured:
[1] = molecular target: Beta5 (Homo sapiens, UniProt P20618+P28074); experiment: Determination of Beta5 activity (fluorescence intensity assay, Suc-LLVY-AMC); format: biochemical; conditions: incubation for 20 minutes; for IC50: purified human constitutive proteasome
Procedure: Determination of Beta5 Activity:
Measurement of Beta5 inhibition is performed in 384 well format based on fluorescence intensity assay.
(§1) Purified human constitutive proteasome (1.25 nM) and serial diluted compounds in DMSO (range of concentrations from 30 μM to 15 μM) or controls are incubated for 20 minutes or 120 minutes (long incubation) at 25° C. in assay buffer containing 50 mM Tris pH 7.4, 0.03% SDS, 1 mM EDTA and 1% DMSO. The reaction is initiated by the addition of the fluorogenic peptide substrate, Suc-LLVY-AMC (Bachem 1-1395), at a concentration of 40 μM. After 60 minutes of incubation at 37° C., fluorescence intensity is measured at λex=350 nm and λem=450 nm with a fluorescence reader (Perkin Elmer Envision reader or equivalent).
(§2) Unless indicated otherwise the results are obtained after incubation for 20 minutes.

[2] = molecular target: LMP7 (Homo sapiens, UniProt P20618+P28062); experiment: Determination of LMP7 activity (fluorescence intensity assay, Suc-LLVY-AMC); format: biochemical; conditions: purified human immunoproteasome, incubation for 20 minutes
Procedure: Determination of LMP7 Activity:
Measurement of LMP7 inhibition is performed in 384 well format based on fluorescence intensity assay.
as §1, with “immunoproteasome (0.25” for “constitutive proteasome (1.25”, “pM)” for “μM)”
as §2

SMILES	Selectivity LMP7 vs Beta5 [1]	IC50 [1] [nM]	IC50 [2] [nM]
CCc1cccc(C[C@H](NC(=O)CCCN2CCOC2=O)B(O)O)c1 [Compound 1, [(1R)-2-(3-ethylphenyl)-1-[4-(2-oxooxazolidin-3-yl)butanoylamino]-ethyl]boronic acid]	++ (10 ≤ Selectivity < 30)	> 5000	50 to 500
O=C(CCN1CCCC1=O)N[C@H](Cc1ccccc1)B(O)O [Compound 2, [(1S)-1-[3-(2-oxopyrrolidin-1-yl)propaqanoylamino]-2-phenyl-ethyl]-boronic acid]	+++ (30 ≤ Selectivity < 50)	500 to 5000	< 50
O=C(CCN1CCCCC1=O)N[C@H](Cc1ccccc1)B(O)O [Compound 3, [(1S)-1-[3-(2-oxo-1-piperidyl)propanoylamino]-2-phenyl-ethyl]boronic acid]	+++ (30 ≤ Selectivity < 50)	500 to 5000	50 to 500
Cc1ccc(C[C@H](NC(=O)CCN2CCCC2=O)B(O)O)cc1 [Compound 4, [(1R)-1-[3-(2-oxopyrrolidin-1-yl)propanoylamino]-2-(p-tolyl)ethyl]-boronic acid]	++ (10 ≤ Selectivity < 30)	50 to 500	< 50
O=C(CCN1C(=O)CCCC1=O)N[C@@H](Cc1ccccc1)B(O)O [Compound 5, [(1R)-1-[3-(2,6-dioxo-1-piperidyl)propanoylamino]-2-phenyl-ethyl]-boronic acid]	+++ (30 ≤ Selectivity < 50)	> 5000	500 to 5000
O=C(CCN1CCCC1=O)N[C@@H](Cc1ccc2ccccc2c1)B(O)O [Compound 6, [(1R)-2-(2-naphthyl)-1-[3-(2-oxopyrrolidin-1-yl)propanoylamino]-ethyl]boronic acid]	++ (10 ≤ Selectivity < 30)	50 to 500	< 50
O=C(CCN1CCCC1=O)N[C@@H](Cc1ccc2c(c1)OCCO2)B(O)O [Compound 8, [(1R)-2-(2,3-dihydro-1,4-benzodioxin-6-yl)-1-[3-(2-oxopyrrolidin-1-yl)propanoylamino]ethyl]boronic acid]	+++ (30 ≤ Selectivity < 50)	500 to 5000	< 50
Cc1ccc(C[C@H](NC(=O)CCN2CCCCC2=O)B(O)O)cc1 [Compound 9, [(1R)-1-[3-(2-oxo-1-piperidyl)propanoylamino]-2-(p-tolyl)ethyl]boronic acid]	++ (10 ≤ Selectivity < 30)	500 to 5000	< 50
O=C(CCN1CCCCC1=O)N[C@@H](Cc1cccc2ccccc12)B(O)O [Compound 11, [(1R)-2-(1-naphthyl)-1-[3-(2-oxo-1-piperidyl)propanoylamino]ethyl]-boronic acid]	+++ (30 ≤ Selectivity < 50)	500 to 5000	50 to 500
O=C(CCN1CCN(c2ccccc2)C1=O)N[C@@H](Cc1ccc(F)cc1)B(O)O [Compound 14, [(1R)-2-(4-fluorophenyl)-1-[3-(2-oxo-3-phenyl-imidazolidin-1-yl)propanoylamino]ethyl]boronic acid]	++ (10 ≤ Selectivity < 30)	50 to 500	< 50
Cc1ccc(C[C@H](NC(=O)CCN2CCCC2=O)B(O)O)cc1C [Compound 16, [(1R)-2-(3,4-dimethylphenyl)-1-[3-(2-oxopyrrolidin-1-yl)propanoylamino]ethyl]boronic acid]	+++++ (Selectivity ≥ 70)	500 to 5000	< 50
Cc1ccc(C[C@H](NC(=O)CCN2CCC(C)(C)C2=O)B(O)O)cc1 [Compound 17, [(1R)-1-[3-(3,3-dimethyl-2-oxo-pyrrolidin-1-yl)propanoylamino]-2-(p-tolyl)ethyl]boronic acid]	++ (10 ≤ Selectivity < 30)	50 to 500	< 50
Cc1ccc(C[C@H](NC(=O)CCN2C(=O)CCC2(C)C)B(O)O)cc1 [Compound 18, [(1R)-1-[3-(2,2-dimethyl-5-oxo-pyrrolidin-1-yl)propanoylamino]-2-(p-tolyl)ethyl]boronic acid]	+++ (30 ≤ Selectivity < 50)	500 to 5000	50 to 500
COCc1ccc(C[C@H](NC(=O)CCN2CCCC2=O)B(O)O)cc1 [Compound 20, [(1R)-2-[4-(methoxymethyl)phenyl]-1-[3-(2-oxopyrrolidin-1-yl)propanoylamino]ethyl]boronic acid]	++ (10 ≤ Selectivity < 30)	500 to 5000	50 to 500
Cc1ccc(C[C@H](NC(=O)CN2CCCC2=O)B(O)O)cc1 [Compound 21, [(1R)-1-[[2-(2-oxopyrrolidin-1-yl)acetyl]amino]-2-(p-tolyl)ethyl]boronic acid]	++ (10 ≤ Selectivity < 30)	500 to 5000	50 to 500
Cc1ccc(C[C@H](NC(=O)CCN2CCCCS2(=O)=O)B(O)O)cc1 [Compound 22, [(1R)-1-[3-(1,1-dioxothiazinan-2-yl)propanoylamino]-2-(p-tolyl)ethyl]-boronic acid]	++ (10 ≤ Selectivity < 30)	50 to 500	< 50
Cc1ccc(C[C@H](NC(=O)CC[C@@H]2NC(=O)NC2=O)B(O)O)cc1 [Compound 23, [(1R)-1-[3-[(4S)-2,5-dioxoimidazolidin-4-yl]propanoylamino]-2-(p-tolyl)ethyl]boronic acid]	++ (10 ≤ Selectivity < 30)	500 to 5000	< 50
O=C(CCN1CCCCC1=O)N[C@@H](Cc1coc2ccccc12)B(O)O [Compound 24, [(1R)-2-(benzofuran-3-yl)-1-[3-(2-oxo-1-piperidyl)propanoylamino]-ethyl]boronic acid]	+++ (30 ≤ Selectivity < 50)	50 to 500	< 50
Cc1ccc(C[C@H](NC(=O)CCN2CCCCC2=O)B(O)O)cc1C [Compound 25, [(1R)-2-(3,4-dimethylphenyl)-1-[3-(2-oxo-1-piperidyl)propanoylamino]-ethyl]boronic acid]	+++++ (Selectivity ≥ 70)	500 to 5000	< 50

The remaining lines, values ahead:

Selectivity LMP7 vs Beta5 [1]	IC50 [1] [nM]	IC50 [2] [nM]	SMILES
++ (10 ≤ Selectivity < 30)	50 to 500	< 50	O=C(CCN1CCCCC1=O)N[C@@H](Cc1ccc2ccccc2c1)B(O)O [Compound 7, [(1R)-2-(2-naphthyl)-1-[3-(2-oxo-1-piperidyl)propanoylamino]ethyl]-boronic acid]
++ (10 ≤ Selectivity < 30)	500 to 5000	50 to 500	O=C(CCN1CCCC1=O)N[C@@H](Cc1cccc2ccccc12)B(O)O [Compound 10, [(1R)-2-(1-naphthyl)-1-[3-(2-oxopyrrolidin-1-yl)propanoylamino]ethyl]-boronic acid]
++ (10 ≤ Selectivity < 30)	50 to 500	< 50	O=C(CCN1CC(c2ccccc2)CC1=O)N[C@@H](Cc1ccccc1)B(O)O (stereo partly drawn) [Compound 12, [(1R)-1-[3-(2-oxo-4-phenyl-pyrrolidin-1-yl)propanoylamino]-2-phenyl-ethyl]boronic acid]
++ (10 ≤ Selectivity < 30)	500 to 5000	50 to 500	O=C(CCN1CCCCCC1=O)N[C@@H](Cc1ccccc1)B(O)O [Compound 13, [(1R)-1-[3-(2-oxoazepan-1-yl)propanoylamino]-2-phenyl-ethyl]boronic acid]
++ (10 ≤ Selectivity < 30)	50 to 500	< 50	Cc1ccc(C[C@H](NC(=O)CCN2CCN(c3ccccc3)C2=O)B(O)O)cc1 [Compound 15, [(1R)-1-[3-(2-oxo-3-phenyl-imidazolidin-1-yl)propanoylamino]-2-(p-tolyl)ethyl]boronic acid]
++++ (50 ≤ Selectivity < 70)	50 to 500	< 50	O=C(CCN1CCCC1=O)N[C@@H](Cc1coc2ccccc12)B(O)O [Compound 19, [(1R)-2-(benzofuran-3-yl)-1-[3-(2-oxopyrrolidin-1-yl)propanoylamino]-ethyl]boronic acid]
+++ (30 ≤ Selectivity < 50)	50 to 500	< 50	O=C(CCN1CCCCS1(=O)=O)N[C@@H](Cc1coc2ccccc12)B(O)O [Compound 26, [(1R)-2-(benzofuran-3-yl)-1-[3-(1,1-dioxothiazinan-2-yl)propanoylamino]ethyl]boronic acid]
+++++ (Selectivity ≥ 70)	500 to 5000	< 50	CC1(C)CCC(=O)N1CCC(=O)N[C@@H](Cc1coc2ccccc12)B(O)O [Compound 27, [(1R)-2-(benzofuran-3-yl)-1-[3-(2,2-dimethyl-5-oxo-pyrrolidin-1-yl)propanoylamino]ethyl]boronic acid]
